ChEMBL document CHEMBL4376890, “Unique Sulfur-Aromatic Interactions Contribute to the Binding of Potent Imidazothiazole Indoleamine 2,3-Dioxygenase Inhibitors” (J Med Chem, 2020)

Molecular target: T1, Indoleamine 2,3-dioxygenase 1 (Homo sapiens, UniProt P14902)
Assay: Inhibition of human […] by HTS assay

T1 sequence (P14902 whole entry): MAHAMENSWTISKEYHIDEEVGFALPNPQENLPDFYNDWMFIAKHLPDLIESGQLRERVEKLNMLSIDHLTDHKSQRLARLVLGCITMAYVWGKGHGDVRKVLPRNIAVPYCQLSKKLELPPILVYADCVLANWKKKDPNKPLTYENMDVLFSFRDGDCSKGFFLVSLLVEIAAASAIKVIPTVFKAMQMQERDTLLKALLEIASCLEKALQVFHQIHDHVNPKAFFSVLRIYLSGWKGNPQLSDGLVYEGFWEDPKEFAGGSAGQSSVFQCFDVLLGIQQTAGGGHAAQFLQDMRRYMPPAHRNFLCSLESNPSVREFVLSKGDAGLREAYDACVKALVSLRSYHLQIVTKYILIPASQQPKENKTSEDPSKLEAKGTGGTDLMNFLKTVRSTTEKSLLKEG

IC50 [µM] | SMILES
1.19 | O=C(CSc1nnc2scc(-c3ccccc3)n12)Nc1ccc(Cl)cc1

Molecular target: T1, Indoleamine 2,3-dioxygenase 1
Assay: Inhibition of recombinant full-length N-terminal His-tagged human IDO1 (1 to 403 residues) expressed in Escherichia coli BL21(DE3) cells

IC50 [µM] | SMILES
0.0276 | S=C(NCc1cnc2scc(C#CC3CC3)n12)Nc1cccc(Cl)c1
3.2 | N#Cc1ccc(NC(=O)NCc2cnc3scc(C#Cc4cccnc4)n23)cc1
0.502 | CCCCNC(=S)NCc1cnc2scc(C#CC3CC3)n12
0.042 | O=C(NCc1cnc2scc(C#CC3CC3)n12)Nc1cccc(Cl)c1
0.0739 | N#Cc1ccc(NC(=O)NCc2cnc3scc(C#Cc4ccsc4)n23)cc1
0.418 | N#Cc1ccc(NC(=O)NCc2cnc3scc(C#CC4CCCC4)n23)cc1
0.823 | N#Cc1ccc(NC(=O)NCc2cnc3scc(C#Cc4ccc(Cl)s4)n23)cc1
0.0164 | N#Cc1ccc(NC(=S)NCc2cnc3scc(C#CC4CC4)n23)cc1
0.744 | O=S(=O)(Cc1cccc(Cl)c1)NCc1cnc2scc(-c3ccc(Br)cc3)n12
0.102 | N#Cc1ccc(NC(=O)NCc2cnc3scc(C#CC4CC4)n23)cc1

Continued, molecule first:

SMILES | IC50 [µM]
OC(c1ccccc1)c1cnc2scc(-c3ccc(Br)cc3)n12 (configuration not stated) | 1.09
O=C(CSc1nnc2scc(-c3ccc(Cl)cc3)n12)c1ccc(Br)cc1 | 0.339
OC(c1cnc2scc(-c3ccc(Br)cc3)n12)C1CCCCC1 (configuration not stated) | 1.28
OC(c1cnc2scc(C#CC3CC3)n12)C1CCCCC1 (configuration not stated) | 7.15
Brc1ccc(-c2csc3nccn23)cc1 | 0.38
CCCS(=O)(=O)NCc1cnc2scc(-c3ccc(Br)cc3)n12 | 1.07
Cc1sc2nccn2c1-c1ccc(Br)cc1 | 3.11
O=C(CSc1nnc2scc(-c3ccc(Br)cc3)n12)c1ccc(Br)cc1 | > 10
CC(C)CSc1nnc2scc(-c3ccc(Cl)cc3)n12 | 0.256
Cc1ccc(CS(=O)(=O)NCc2cnc3scc(-c4ccc(Br)cc4)n23)cc1 | 0.855
O=C(CSc1nnc2scc(C3CCCCC3)n12)c1ccc(Br)cc1 | > 10
